Experimental data as given in patent US9701680B2, “Pyrimidine and pyridine compounds and their usage” (HUTCHISON MEDIPHARMA LIMITED, priority 2013, dated 2017).
Read-outs that look alike come from different tables or passages of the source.

How the values were obtained:
Recombinant human FGFR1 = Recombinant human FGFR1 (Homo sapiens, UniProt P11362); assay: Transcreener Kinase Assay of FGFR1; type: biochemical
In short: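 Recombinant human FGFR1 was reacted with Poly E4Y substrate and ATP for 45 min at 28 °C, with compounds at 1 to 0.0005 µM in 1% DMSO final. Inhibition is relative to the DMSO control, with IC50 from a curve fit.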

Recombinant human FGFR2 = Recombinant human FGFR2 (Homo sapiens, UniProt P21802); assay: Transcreener Kinase Assay of FGFR2; type: biochemical
FGFR3 kinase = FGFR3 kinase (Homo sapiens, UniProt P22607); assay: Z-Lyte Kinase Assay of FGFR3; type: biochemical
In short: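 Z-LYTE FRET assay, kinase 0.7 μg/ml with Tyr 4 peptide 4 μM (P/K solution), ATP diluted to 300 uM in 1.33× buffer; compound final 1 to 0.00046 μM, 2% DMSO.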

KG-1 = assay: Cellular Proliferation Assay (Cell Counting Kit-8), KG-1; type: cell-based; details: Homo sapiens; KG-1 cells, 72 hours; read-out: KG1 IC50
In short: (§1)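 Seeding per well: KG-1 30000, SNU-16 5000, RT-112 1000 cells. After 24 h an 8-point series (working dilutions 10 to 0.004 μM in 5% DMSO) was added for 72 h at 37 °C, 5% CO2. CCK-8 OD450 after 1 h, corrected for media background and normalised to untreated cells, gave IC50.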

SNU-16 = assay: Cellular Proliferation Assay (Cell Counting Kit-8), SNU-16; type: cell-based; details: Homo sapiens; SNU-16 cells, 72 hours
In short: as §1

RT-112 = assay: Cellular Proliferation Assay (Cell Counting Kit-8), RT-112; type: cell-based; details: Homo sapiens; RT-112 cells, 72 hours
In short: as §1

Chain of Recombinant human FGFR2 (P21802 22-821): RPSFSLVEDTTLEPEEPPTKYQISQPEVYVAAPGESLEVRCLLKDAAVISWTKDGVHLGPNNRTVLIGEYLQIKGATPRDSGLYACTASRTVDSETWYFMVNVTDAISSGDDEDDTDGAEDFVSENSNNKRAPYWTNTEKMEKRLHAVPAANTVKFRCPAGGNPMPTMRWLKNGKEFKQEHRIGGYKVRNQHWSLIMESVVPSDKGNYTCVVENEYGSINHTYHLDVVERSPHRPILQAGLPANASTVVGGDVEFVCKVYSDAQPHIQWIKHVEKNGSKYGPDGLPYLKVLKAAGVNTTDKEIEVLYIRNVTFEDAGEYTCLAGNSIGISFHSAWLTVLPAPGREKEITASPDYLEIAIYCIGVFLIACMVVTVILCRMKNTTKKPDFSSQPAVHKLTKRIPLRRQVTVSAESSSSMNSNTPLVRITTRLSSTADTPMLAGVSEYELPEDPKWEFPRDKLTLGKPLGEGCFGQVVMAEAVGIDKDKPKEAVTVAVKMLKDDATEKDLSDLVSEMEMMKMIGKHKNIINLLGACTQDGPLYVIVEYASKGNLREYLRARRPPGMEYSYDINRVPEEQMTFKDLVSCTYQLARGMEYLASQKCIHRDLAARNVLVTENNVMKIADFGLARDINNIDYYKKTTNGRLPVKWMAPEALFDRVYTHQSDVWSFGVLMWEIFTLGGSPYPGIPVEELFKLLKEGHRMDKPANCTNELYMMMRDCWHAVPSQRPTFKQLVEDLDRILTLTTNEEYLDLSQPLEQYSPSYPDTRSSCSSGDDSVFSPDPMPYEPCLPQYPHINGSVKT
Chain of Recombinant human FGFR1 (P11362 22-822): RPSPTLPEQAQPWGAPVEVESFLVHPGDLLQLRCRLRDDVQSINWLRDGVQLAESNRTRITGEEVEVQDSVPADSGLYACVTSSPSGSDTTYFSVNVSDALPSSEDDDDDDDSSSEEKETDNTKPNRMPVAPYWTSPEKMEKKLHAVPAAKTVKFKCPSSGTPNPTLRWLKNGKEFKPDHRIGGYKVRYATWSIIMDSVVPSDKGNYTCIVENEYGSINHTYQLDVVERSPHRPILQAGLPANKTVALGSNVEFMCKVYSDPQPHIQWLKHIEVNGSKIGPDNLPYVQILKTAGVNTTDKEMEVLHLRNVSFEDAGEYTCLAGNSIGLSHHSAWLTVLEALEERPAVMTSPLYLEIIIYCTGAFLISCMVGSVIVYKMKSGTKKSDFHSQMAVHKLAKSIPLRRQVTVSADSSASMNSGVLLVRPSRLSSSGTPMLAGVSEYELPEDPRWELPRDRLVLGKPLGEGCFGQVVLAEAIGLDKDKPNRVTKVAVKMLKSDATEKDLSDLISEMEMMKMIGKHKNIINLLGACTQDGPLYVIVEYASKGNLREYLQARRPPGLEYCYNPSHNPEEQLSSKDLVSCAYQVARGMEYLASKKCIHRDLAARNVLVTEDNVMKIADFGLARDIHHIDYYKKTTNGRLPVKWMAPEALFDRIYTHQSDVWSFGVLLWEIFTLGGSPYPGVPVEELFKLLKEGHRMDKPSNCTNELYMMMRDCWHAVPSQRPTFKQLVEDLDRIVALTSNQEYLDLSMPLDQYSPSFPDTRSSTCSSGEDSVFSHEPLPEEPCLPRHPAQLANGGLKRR
Chain of FGFR3 kinase (P22607 23-806): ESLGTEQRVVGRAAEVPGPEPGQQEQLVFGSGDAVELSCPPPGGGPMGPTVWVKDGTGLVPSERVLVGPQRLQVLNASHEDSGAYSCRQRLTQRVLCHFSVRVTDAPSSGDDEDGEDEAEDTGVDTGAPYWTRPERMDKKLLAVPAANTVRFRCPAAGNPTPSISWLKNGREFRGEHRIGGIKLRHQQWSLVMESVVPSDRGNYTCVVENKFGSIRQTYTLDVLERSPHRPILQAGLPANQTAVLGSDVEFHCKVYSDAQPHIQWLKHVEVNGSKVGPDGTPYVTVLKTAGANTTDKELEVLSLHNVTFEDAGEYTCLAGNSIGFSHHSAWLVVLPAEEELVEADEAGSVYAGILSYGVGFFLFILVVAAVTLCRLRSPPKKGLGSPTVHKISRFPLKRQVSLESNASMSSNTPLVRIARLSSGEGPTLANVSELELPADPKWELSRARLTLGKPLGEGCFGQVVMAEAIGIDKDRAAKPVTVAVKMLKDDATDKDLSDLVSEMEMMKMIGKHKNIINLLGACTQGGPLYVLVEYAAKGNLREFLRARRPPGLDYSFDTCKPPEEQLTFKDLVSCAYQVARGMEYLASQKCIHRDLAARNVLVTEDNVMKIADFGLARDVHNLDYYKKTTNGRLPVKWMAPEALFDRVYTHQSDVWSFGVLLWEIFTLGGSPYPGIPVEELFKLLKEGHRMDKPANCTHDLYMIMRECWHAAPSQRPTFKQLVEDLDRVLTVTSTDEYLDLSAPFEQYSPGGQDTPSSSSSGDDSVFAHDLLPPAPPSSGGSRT

Row | SMILES | IC50 (Recombinant human FGFR1; read-out: FGFR1 (FP) IC50) | IC50 (Recombinant human FGFR2; read-out: FGFR2 (FP) IC50) | IC50 (FGFR3 kinase) | IC50 (KG-1) | IC50 (SNU-16) | IC50 (RT-112) | IC50 (Recombinant human FGFR1; FP) | IC50 (Recombinant human FGFR2; FP) | IC50 (FGFR3 kinase; Z-lyte)
1 | CCCN1CC(c2ccc(Nc3ncc(OCc4cc(C(=O)NC)cc(OC)c4F)cn3)cc2)C1 [Compound 240] | 0.034 µM | 0.023 µM | 0.023 µM | 0.023 µM | 0.039 µM | 0.056 µM |  |  | 
2 | CNC(=O)c1cc(COc2cnc(Nc3ccc(N4CCN(C)CC4)c(OC)c3)nc2)c(F)c(OC)c1 [Compound 269] | 0.01 µM | 0.007 µM | 0.005 µM | 0.006 µM | 0.006 µM | 0.005 µM |  |  | 
3 | CNC(=O)c1cc(COc2cnc(Nc3ccc(-c4cnn(C)c4)cc3)nc2)c(F)c(OC)c1 [Compound 228] | 0.029 µM | 0.018 µM | 0.12 µM | 0.094 µM | 0.097 µM | 0.27 µM |  |  | 
4 | CCN(CC)CCc1cccc(Nc2ncc(OCc3cc(C(=O)NC)cc(OC)c3F)cn2)c1 [Compound 243] | 0.02 µM | 0.009 µM | 0.009 µM | 0.069 µM | 0.006 µM | 0.015 µM |  |  | 
5 | CNC(=O)c1cc(OC)c(Cl)c(COc2cnc(Nc3ccc(N4C[C@@H](C)N[C@@H](C)C4)c(F)c3)nc2)c1F [Compound 299] |  |  |  | 0.007 µM | 0.011 µM | 0.015 µM | 0.006 µM | 0.006 µM | 0.008 µM
6 | CCN1CCC(c2ccc(Nc3ncc(OCc4cc(C(=O)NC)cc(OC)c4F)cn3)cc2)CC1 [Compound 252] | 0.021 µM | 0.022 µM | 0.016 µM | 0.028 µM | 0.008 µM | 0.006 µM |  |  | 
7 | CCN1[C@H](C)CN(c2ccc(Nc3ncc(CCc4cc(C(=O)NC)cc(OC)c4Cl)cn3)cn2)C[C@@H]1C [Compound 159] | 0.023 µM | 0.011 µM | 0.01 µM | 0.026 µM | 0.006 µM | 0.021 µM |  |  | 
8 | CNC(=O)c1cc(COc2cnc(Nc3cnc(N4C[C@@H](C)N[C@@H](C)C4)c(F)c3)nc2)c(Cl)c(OC)c1 [Compound 292] |  |  |  | 0.046 µM | 0.017 µM | 0.07 µM | 0.013 µM | 0.011 µM | 0.014 µM
9 | CNC(=O)c1cc(CCc2cnc(Nc3cnn(C[C@H](C)O)c3)nc2)c(Cl)c(OC)c1 [Compound 88] | 0.012 µM | 0.005 µM | 0.003 µM | 0.03 µM | 0.024 µM | 0.05 µM |  |  | 
10 | CNC(=O)c1cc(COc2cnc(Nc3ccc(C4CCNCC4)cc3)nc2)c(F)c(OC)c1 [Compound 231] | 0.016 µM | 0.016 µM | 0.011 µM | 0.058 µM | 0.008 µM | 0.009 µM |  |  | 
11 | CNC(=O)c1cc(COc2cnc(Nc3ccc(N4C[C@@H](C)N[C@@H](C)C4)c(OC)c3)nc2)c(F)c(OC)c1 [Compound 282] |  |  |  | 0.046 µM | 0.005 µM | 0.005 µM | 0.018 µM | 0.009 µM | 0.007 µM
12 | CCN1CCc2cc(Nc3ncc(OCc4cc(C(=O)NC)cc(OC)c4F)cn3)ccc21 [Compound 224] | 0.065 µM | 0.027 µM | 0.056 µM | 0.063 µM | 0.056 µM | 0.234 µM |  |  | 
13 | CNC(=O)c1cc(COc2cnc(Nc3ccc(=O)n(C4CCCC4)c3)nc2)c(F)c(OC)c1 [Compound 237] | 0.066 µM | 0.027 µM | 0.029 µM | 0.079 µM | 0.042 µM | 0.134 µM |  |  | 
14 | CNC(=O)c1cc(COc2cnc(Nc3ccc(N4C[C@@H](C)N(C)[C@@H](C)C4)cc3)nc2)c(Cl)c(OC)c1 [Compound 286] |  |  |  | 0.008 µM | 0.016 µM | 0.043 µM | 0.007 µM | 0.006 µM | 0.009 µM
15 | CNC(=O)c1cc(COc2cnc(Nc3ccc4c(c3)NC(=O)C4(C)C)nc2)c(F)c(OC)c1 [Compound 230] | 0.101 µM | 0.032 µM | 0.045 µM | 0.076 µM | 0.014 µM | 0.026 µM |  |  | 
